In patent publication US20040058909A1, “Method of treatment” (priority 2003, published 2004):

Experiments:
[1] = test system: cynomolgus monkeys exposed to 1-methyl-4-phenyl-1,2,3,6-tetrahydropyridine (MPTP)
Experimental: Quetiapine may be administered to cynomolgus monkeys exposed to 1-methyl-4-phenyl-1,2,3,6-tetrahydropyridine (MPTP) and which therefore have MPTP-induced Parkinson's Disease. Such monkeys are described by Blanchet et al., Experimental Neurology, 153, 214-222 (1998).
The monkeys are assessed according to the Laval University Disability Scale for MPTP monkeys with the following motor and behavioural parameters scored: posture (normal, flexed, crouched); mobility (normal, passive); climbing (present, absent); gait (normal, abnormal); tremor (present, absent); holding food (present, absent); vocalising (present, absent); grooming (present, absent); and social interaction (present, absent).
Quetiapine may be administered at various dosage values, either alone or with varying dosages of levodopa, and scoring is carried out at regular intervals.
Quetiapine was administered subcutaneously to 8 cynomolgus monkeys at doses of 2 mg/Kg and 4 mg/Kg.

[2] = test system: patients suffering from Parkinson's Disease; conditions: patients with Parkinson's Disease treated for psychoses; cited from earlier work

OCCOCCN1CCN(C2=Nc3ccccc3Sc3ccccc32)CC1 [Quetiapine, 11-(4-[2-(2-hydroxyethoxy)ethyl]-l-piperazinyl)dibenzo[b,f] [1.4]-thiazepine]
levodopa effect on Parkinson's Disease symptoms ([1]; quetiapine 2 mg/Kg and 4 mg/Kg subcutaneously with levodopa): unchanged
reduction of levodopa-induced dyskinesias, compared with the 4 mg/Kg dose ([1]; quetiapine 2 mg/Kg subcutaneously, 8 cynomolgus monkeys): less effective
reduction of maximum levodopa-induced dyskinesias ([1]; quetiapine 4 mg/Kg subcutaneously, levodopa dose sufficient to produce maximum dyskinesias, 8 cynomolgus monkeys): 41%
reduction of moderate levodopa-induced dyskinesias ([1]; quetiapine 4 mg/Kg subcutaneously, levodopa dose sufficient to produce moderate dyskinesias, 8 cynomolgus monkeys): 57%
exacerbation of extra-pyramidal symptoms [2]: no exacerbation of extra-pyramidal symptoms
